The text below walks through data of US8415152B2, “Therapeutical composition containing dentritic cells and use thereof” (Helmholtz-Zentrum für Infektionsforschung GmbH, priority 2003, dated 2013).

For experiment [1], the system named is Balb/c mice. Briefly: Lung function measurement: airway hyperreactivity to methacholine, head-out body plethysmography. To be noted: OVA-sensitized mice, 72 h after i.t. treatment, 24 h after last allergen challenge; mean±SEM. The class given is in vivo, mouse. The protocol:
Animals were sensitized and challenged as previously described (Glaab, T., A. Daser, A. Braun, U. Neuhaus-Steinmetz, H. Fabel, Y. Alarie, and H. Renz. 2001. Am. J. Physiol Lung Cell Mol. Physiol 280:L565-L573). Briefly, 10 μg ovalbumin (OVA, grade VI, Sigma, Müchen, Germany) was adsorbed to 1 mg Imject Alum (Pierce, Rockford, USA) in a total volume of 200 μl 0.9% NaCl solution and intraperitonealy injected three times on days 0, 14 and 21. Negative controls were injected with the solution lacking ovalbumin. All groups were subjected to inhalative allergen challenge on days 28 and 29. […] A lung deposition of approximately 8 μg OVA per mice in each session was calculated by a respiratory minute volume of 35 ml/min an a deposition factor of 0.15 as brought forward by Raabe et al. (Raabe, O. G., J. E. Bennick, M. E. Light, C. H. Hobbs, R. L. Thomas, and M. I. Tillery. 1973. Toxicol. Appl. Pharmacol. 26:264-273). […]
24 hours after the last allergen challenge, airway hyperreactivity to methacholine (Mch) was determined in non-anaesthesized spontaneously breathing animals using head-out body plethysmography, as described before (Glaab, T., A. Daser, A. Braun, U. Neuhaus-Steinmetz, H. Fabel, Y. Alarie, and H. Renz. 2001. Am. J. Physiol Lung Cell Mol. Physiol 280:L565-L573). […] Respiratory signals were analyzed using the Hem 3.4 system (Notocord systems S. A., Crossy-sur-Seine, F).

For experiment [2], the system named is autologous lymphocytes. In words: Cytokines in coculture of pretreated DC with autologous lymphocytes (ELISA). To be noted: allergic donors, DC:lymphocytes 1:3. The class given is cell-based, human. The protocol:
(§1) On day 5 of the culture, DC were pulsed with affinity purified house dust mite allergen adjusted to a concentration of 100 ng/ml of DerP1 or with PBS as control. […] The respective optimal concentrations were experimentally determined using the highest expression of stimulatory cell surface molecules as read-out system. The substances were incubated on the cells for 48 hours.
(§2) Cytokine concentrations were determined in DC culture supernatant collected on day 7 (TNF-α, IL-10, IL-12) and in the supernatant of the coculture of DC and autologous lymphocytes collected on day 10 (IFN-γ, IL-4). Duo-Set ELISA kits for the detection of IL-12p70, IL-10, TNF, IFN-γ, IL-4 and IL-5 were purchased (R&D Systems, Wiesbaden, Germany) and performed according to the manufacturers instructions.
A portion of DC was used for coculture experiments with autologous lymphocytes from day 7 to day 13. To remove free stimulants, DC were harvested and washed twice. The cells were titrated in fresh medium in fresh round-bottom microtiterplates. 1×10^5 vital cryopreserved autologous lymphocytes were added at ratios of DC to lymphocytes from 1:3 to 1:2187 in a final volume of 200 μl in serum-free XVIVO-15. No further stimulants were given.
A general note: ELISA stands for enzyme-linked immunosorbent assay.

The subject of experiment [3] is Balb/c mice. Briefly: Differential cell count of BAL and blood, OVA-sensitized mice. The class given is in vivo, mouse. The following applies: i.t. treatment day 27; 24 h after last allergen challenge. The protocol:
Animals were sensitized and challenged as previously described (Glaab, T., A. Daser, A. Braun, U. Neuhaus-Steinmetz, H. Fabel, Y. Alarie, and H. Renz. 2001. Am. J. Physiol Lung Cell Mol. Physiol 280:L565-L573). Briefly, 10 μg ovalbumin (OVA, grade VI, Sigma, Müchen, Germany) was adsorbed to 1 mg Imject Alum (Pierce, Rockford, USA) in a total volume of 200 μl 0.9% NaCl solution and intraperitonealy injected three times on days 0, 14 and 21. Negative controls were injected with the solution lacking ovalbumin. All groups were subjected to inhalative allergen challenge on days 28 and 29. OVA-aerosols (grade V, Sigma) with a mean mass diameter of 1.49 μm were generated from a solution of 1 mg/ml OVA in 0.9% NaCl using a modified Pad Master system (Pari Werke, Sternberg, Germany) for 20 min. A lung deposition of approximately 8 μg OVA per mice in each session was calculated by a respiratory minute volume of 35 ml/min an a deposition factor of 0.15 as brought forward by Raabe et al. (Raabe, O. G., J. E. Bennick, M. E. Light, C. H. Hobbs, R. L. Thomas, and M. I. Tillery. 1973. Toxicol. Appl. Pharmacol. 26:264-273). 3 gives the test groups.
The trachea was canulated under direct vision, and a total volume of 50 μl containing the substances was instillated using a syringe.
Mice were killed with an i.p. injected overdose of pentobarbital-Na (Menial, Halbergmoos, Germany) after the lung function. In a satellite group, mice were left untouched after the last allergen challenge and kept for another 7 days. Afterwards, they were dissected in the same way as the main groups as follows. Blood was obtained via punction of the vena cava. Red blood cells were lysed by incubation with 0.9% NH4Cl (Sigma) in H2O for 10 min, white blood cells were automatically counted using an AcT8 counter (Beckman Coulter, Krefeld, Germany) and cytospins were prepared for differential cell count. The trachea was canulated and broncho-alveolar lavage (BAL) was performed with 0.8 ml ice cold saline two times. BAL cells were separated by centrifugation, counted and cytospins were prepared as described above. The BAL fluid (BALF) was aliquoted, shock frozen in liquid nitrogen and stored at −80° C. until the determination of cytokines. After BAL, the lungs were filled with Tissue-Tek O.C.T. (Sakura Finetek, Zoeterwoude, Netherlands) diluted 1:2 in PBS and the trachea was ligated. Next, the right lungs were excised, subsequently shock frozen in liquid nitrogen and stored at −80° C. for histology.
Cytospins were stained applying the Pappenheim method according to standard protocols. […] 300 cells of each sample were determined, and absolute counts of macrophages, lymphocytes, eosinophilic and neutrophilic granulocytes were calculated.

Experiment [4] has as its system monocyte derived DC. Briefly: Cytokines in DC culture supernatant (ELISA). The class given is cell-based, human. To be noted: day 7 of culture; for IL-10 production in DC culture supernatant / IL-12p70 production in DC culture supernatant: compared to untreated DC. How it is done: Monocyte derived DC were generated as previously described (Weigt et al. Immunobiol. 207, 223-233 (2003). Briefly, blood was centrifuged to remove platelets, diluted and layered over Ficoll-Paque (Amersham Pharmacia, Uppsala, Sweden). After density gradient centrifugation, PBMC were collected, and monocytes were enriched using the MACS system and anti-CD14 beads (Miltenyi Biotec, Bergisch Gladbach, Germany). The CD14 positive fraction (monocytes) was cultured in the serum-free medium X-VIVO 15 supplemented with 100 U/ml penicillin and […] streptomycin (all BioWhittaker, Verviers, Belgium). The CD14 negative fraction containing the lymphocytes was cryopreserved in 90% FCS (GIBCO, Eggenstein-Leopoldhafen, Germany) and 10% DMSO (SIGMA, Taufkirchen, Germany). On day 1 and day 5 after isolation, 800 U/m of recombinant GM-CSF and 500 U/ml of recombinant IL-4 (Strathmann Biotec, Hamburg, Germany) were added to the monocyte culture to induce DC.
as §1, §2

With “IFN-γ: interferon gamma, IFNγ receptor agonist (Strathmann Biotec)”, the “ED50: concentration of Mch needed to decrease the EF50 to 50% of baseline” value in experiment [1] amounted to 17.67±3.05 mg/ml Mch. Further, in experiment [2], the “IFN-g in coculture supernatant” value is reported as “heightened lymphopcyte IFN-g production” and the “IL-4 in coculture supernatant” value was “little effect on IL-4”. In experiment [3], the “Eosinophils in BAL” value is given as “raised the eosinophil counts even further” and the “Number of BAL lymphocytes” value is given as “increased”. In addition, in experiment [4], the “TNF production in DC culture supernatant” value was “comparable moderate release”, the “IL-10 production in DC culture supernatant” value is “did not influence” and the “IL-12p70 production in DC culture supernatant” value is given as “did not influence”.

Take “macrophage activating lipopeptide-2 [MALP-2, reference compound]”: the “ED50: concentration of Mch needed to decrease the EF50 to 50% of baseline” value in experiment [1] is reported as 20.13±1.36 mg/ml Mch. Besides, in experiment [2], the “IFN-g in coculture supernatant” value is “lowered IFN-g less compared to allergen pulsed DC” and the “IL-4 in coculture supernatant” value is “reduced IL-4 to control levels”. Moreover, in experiment [3], the “Eosinophils in BAL” value is recorded as “raised the eosinophil counts even further” and the “Number of BAL lymphocytes” value was “increased”. In experiment [4], the “TNF production in DC culture supernatant” value was “comparable moderate release”, the “IL-10 production in DC culture supernatant” value is reported as “induced IL-10” and the “IL-12p70 production in DC culture supernatant” value is “no effect on IL-12”.
